This experiment has as its target T1, hmGluR4 (Homo sapiens, UniProt Q14833).
T1 construct: host or cells: HEK293T
Briefly: HEK-293 mGluR4 cells cAMP assay with EC20 L-Glutamate (HTRF). The settings on record: positive allosteric activity at EC20 L-Glutamate, 10 μM Forskolin, HEK293T mGluR4 cells, cAMP HTRF; read-out: hrmGluR4/HEK293T-hmGluR4 (EC50). It is filed as cell-based. Here is the method:
II. Biological Assays HEK-293 mGluR4 Cells cAMP Assay with EC20 L-Glutamate
Using mGluR4 suspension cell format, 10 μM Forskolin (final conc.) used to induce the production of cAMP.
Test the positive allosteric activity of the compounds of the invention at EC20 (2.3 μM for mGluR4 and 4.3 μM for mGluR6) L-Glutamate,
cAMP dymanic2 kit is intended for the direct quantitative determination of cAMP and its principle is based on HTRF technology.
• Cells: HEK293T mGluR4 cells from Multispan, cat# C1191a lot# C1191a-040910 • Culture Media: DMEM+GlutaMAX1+10% dialyzed FBS, 100 mM Sodium Pyruvate, 1 ug/ml puromycin. • Glutamine Starvation Media: DMEM without GlutaMax for plating the cells (glutamine starvation overnight). DMEM high Glucose, without phenol red, glutamine, or sodium pyruvate+10% dialyzed FBS, 100 mM Sodium Pyruvate, 1 ug/ml puromycin, 10 mM Hepes. • Hanks' balanced Salt Solution, HBSS from Invitrogen • Greiner 384 well white low volume high base plate (784075) • cAMP dynamic2 from Cisbio Bioassays • Glutamate: L-Glutamaic acid, monosodium salt, Monohydrate, 98%, from Sigma-Aldrich • Cell Preparation: split cells at 80%-90% confluence. The following day, rinse the cells with DMEM without GlutaMax and change to Glutamine Starvation Media. Incubate overnight. Assay: • Prepare compound plate: Perform compound serial dilution (uses Matrix 4341 plate), using the Bravo liquid handling platform protocol (compound serial dilution) which adds DMSO to columns 1-24 (except cols. 3 and 13). Serial dilute compounds located in columns 3 and 13 at a 1:3 ratio; 10 points (10 ul of 3 mM compound into 20 ul DMSO). Use the Bravo liquid handling platform to transfer 1 ul from the serial dilution plate into Matrix 4314 plate to create stamp plates. Prepare Compound Dilution Buffer: • Dilute 20 mM Forskolin (in DMSO) stock solution in HBSS buffer to make a 20 uM solution (forskolin buffer; 2× solution). To the forskolin buffer, add glutamate to a concentration of 8 uM (compound dilution buffer; 2× EC20 glutamate and forskolin). • Using a multidrop, add 50 ul/well of compound dilution buffer to columns 1-22 of the 2 ul compound stamp plate. Columns 23 and 24 receive forskolin buffer containing 400 uM glutamate (EC100 glutamate; 2× solution). Columns 1 and 2 receive compound dilution buffer containing EC20 glutamate, which is the basal control. • Add a glutamate dose response to row P of compound plate. Prepare the dose response by serial diluting glutamate at a 1:3 ratio in forskolin buffer starting at 2 mM glutamate (2×). Dilute the glutamate 9 times and transfer to compound plate. Prepare Cell Plates: • Harvest cells: Rinse cells with pre-warmed HBSS-10 mM HEPES (without Ca Mg) and dissociate the cells from the flask with versene. Centrifuge the cells, remove the supernatant and suspend in pre-warmed HBSS+10 mM Hepes. Count the cells and centrifuge. Remove the supernatant and suspend the cells in HBSS+Hepes (with Ca Mg) at a density of 400,000 cells/ml. Perform Assay: • Dispense 5 ul from the diluted compound plate into Greiner low volume cell plate using the Bravo liquid handling platform. Using a Multidrop with the small tubing cassette, dispense 5 ul of cells (2000 cells/well) onto the compounds contained in the low volume plates. Incubate the cells at 37° C., 5% CO2 for 30 minutes in the incubator. Assay for cAMP: • Prepare cAMP-d2 and anti-cAMP-Crytate according to the instructions for the two step assay (see Cisbio manual) and add 10 ul of the mixed reagent to each well of the assay plate using the Multidrop. Incubate at room temperature for 60 minutes and read on the Envision plate reader using the mGluR low volume cAMP HTRF 384 well protocol.
For orientation: Changes in cAMP serve as a functional read-out for many G protein-coupled receptors.

Where only a bound is given, the exact number is not on record here.

T1 sequence (Q14833 33-912): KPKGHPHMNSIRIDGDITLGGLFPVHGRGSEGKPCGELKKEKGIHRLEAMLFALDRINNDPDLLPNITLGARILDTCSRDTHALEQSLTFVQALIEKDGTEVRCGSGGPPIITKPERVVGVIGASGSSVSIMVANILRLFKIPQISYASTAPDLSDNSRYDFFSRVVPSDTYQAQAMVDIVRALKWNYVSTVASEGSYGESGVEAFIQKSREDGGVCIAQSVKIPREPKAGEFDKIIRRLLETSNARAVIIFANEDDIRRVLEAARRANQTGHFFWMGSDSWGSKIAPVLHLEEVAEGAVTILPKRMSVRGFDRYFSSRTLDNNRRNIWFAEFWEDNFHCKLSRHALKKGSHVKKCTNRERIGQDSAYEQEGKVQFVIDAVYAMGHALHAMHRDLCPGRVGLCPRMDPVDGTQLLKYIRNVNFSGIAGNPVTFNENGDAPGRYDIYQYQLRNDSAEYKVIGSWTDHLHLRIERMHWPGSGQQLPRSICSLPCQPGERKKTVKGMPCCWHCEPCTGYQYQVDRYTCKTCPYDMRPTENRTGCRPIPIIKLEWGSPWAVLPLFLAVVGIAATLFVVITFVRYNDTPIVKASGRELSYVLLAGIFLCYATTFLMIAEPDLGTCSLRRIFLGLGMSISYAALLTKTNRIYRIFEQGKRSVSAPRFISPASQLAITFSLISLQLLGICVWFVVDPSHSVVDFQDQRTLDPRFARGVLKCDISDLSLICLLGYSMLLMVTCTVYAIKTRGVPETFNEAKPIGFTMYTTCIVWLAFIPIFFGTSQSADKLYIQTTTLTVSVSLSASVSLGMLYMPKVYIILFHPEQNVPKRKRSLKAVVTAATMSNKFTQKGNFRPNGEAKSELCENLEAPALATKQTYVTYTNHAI

Take `COc1ccc(N2C(=O)c3ccc(-c4ccc(CN(C)C)o4)cc3NC23CCN(Cc2ccc(F)c(F)c2)CC3)cc1` [Compound 117, 1-(3,4-Difluorobenzyl)-7′-(5-((dimethylamino)methyl)furan-2-yl)-3′-(4-methoxyphenyl)-1′H-spiro[piperidine-4,2′-quinazolin]-4′(3′H)-one]: the EC50 lay in the range of 1000 to 10000 nM.

`COc1cccc(N2C(=O)c3ccccc3NC23CCN(Cc2cc(Cl)ccc2Cl)CC3)c1` [Compound 115, 1-(2,5-Dichlorobenzyl)-3′-(3-methoxyphenyl)-1′H-spiro[piperidine-4,2′-quinazolin]-4′(3′H)-one]: the EC50 lay in the range of 1000 to 10000 nM.

For `O=C1c2ccc(Br)cc2NC2(CCN(C(c3cccc(F)c3)C(F)(F)F)CC2)N1c1ccc(OC(F)(F)F)cc1` (stereo not drawn) [Compound 43, 7′-Bromo-1-(2,2,2-trifluoro-1-(3-fluorophenyl)ethyl)-3′-(4-(trifluoromethoxy)phenyl)-1′H-spiro[piperidine-4,2′-quinazolin]-4′(3′H)-one], the EC50 was below 1000 nM.

With `COc1ccc(N2C(=O)c3ccccc3NC23CCN(Cc2cc(C)cc(C)c2)CC3)cc1` [Compound 105, 1-(3,5-Dimethylbenzyl)-3′-(4-methoxyphenyl)-1′H-spiro[piperidine-4,2′-quinazolin]-4′(3′H)-one], the EC50 lay in the range of 1000 to 10000 nM.

Regarding `COc1ccc(N2C(=O)c3ccc(Cl)cc3NC23CCN(Cc2cccc(C#N)c2)CC3)cc1` [Compound 75, 3-((7′-Chloro-3′-(4-methoxyphenyl)-4′-oxo-3′,4′-dihydro-1′H-spiro[piperidine-4,2′-quinazolin]-1-yl)methyl)benzonitrile], the EC50 fell in the range of 1000 to 10000 nM.

Consider `CC(c1ccccc1)N1CCC2(CC1)Nc1cc(Br)ccc1C(=O)N2c1ccc(Cl)cc1` (stereo not drawn) [Compound 26, 7′-Bromo-3′-(4-chlorophenyl)-1-(1-phenylethyl)-1′H-spiro[piperidine-4,2′-quinazolin]-4′(3′H)-one], for which the EC50 was below 1000 nM.

Regarding `COc1ccc(N2C(=O)c3ccc(C(=O)OC(C)C)cc3NC23CCN(Cc2ccc(F)c(F)c2)CC3)cc1` [Compound 3, Isopropyl 1-(3,4-difluorobenzyl)-3′-(4-methoxyphenyl)-4′-oxo-3′,4′-dihydro-1′H-spiro[piperidine-4,2′-quinazoline]-7′-carboxylate], the EC50 is below 1000 nM.

As to `COc1ccc(N2C(=O)c3ccccc3NC23CN(Cc2ccc4ccccc4c2)C3)cc1` [Compound 90, 3′-(4-Methoxyphenyl)-1-(naphthalen-2-ylmethyl)-1′H-spiro[azetidine-3,2′-quinazolin]-4′(3′H)-one], the EC50 was 1000 to 10000 nM.

As to `O=C1c2ccc(Br)cc2NC2(CCN(Cc3ccccc3O)CC2)N1c1ccc(OC(F)(F)F)cc1` [Compound 49, 7′-Bromo-1-(2-hydroxybenzyl)-3′-(4-(trifluoromethoxy)phenyl)-1′H-spiro[piperidine-4,2′-quinazolin]-4′(3′H)-one], the EC50 is below 1000 nM.

For the compound `COc1ccc(N2C(=O)c3ccc(-c4ccccn4)cc3NC23CCN(Cc2ccc(F)c(F)c2)CC3)cc1` [Compound 73, 1-(3,4-Difluorobenzyl)-3′-(4-methoxyphenyl)-7′-(pyridin-2-yl)-1′H-spiro[piperidine-4,2′-quinazolin]-4′(3′H)-one], the EC50 lay within 1000 to 10000 nM.

In the case of `O=C1c2ccc(F)cc2NC2(CCN(Cc3ccc(F)c(F)c3)CC2)N1c1ccc(Br)cc1` [Compound 51, 3′-(4-Bromophenyl)-1-(3,4-difluorobenzyl)-7′-fluoro-1′H-spiro[piperidine-4,2′-quinazolin]-4′(3′H)-one], the EC50 was below 1000 nM.

As for `O=C1c2ccc(-c3ccco3)cc2NC2(CCN(Cc3ccc(F)c(F)c3)CC2)N1c1ccc(OC(F)(F)F)cc1` [Compound 6, 1-(3,4-Difluorobenzyl)-7′-(furan-2-yl)-3′-(4-(trifluoromethoxy)phenyl)-1′H-spiro[piperidine-4,2′-quinazolin]-4′(3′H)-one], the EC50 was below 1000 nM.

Regarding `O=C1c2ccc(N3CCOCC3)cc2NC2(CCN(Cc3ccc(F)c(F)c3)CC2)N1c1ccc(OC(F)(F)F)cc1` [Compound 21, 1-(3,4-Difluorobenzyl)-7′-morpholino-3′-(4-(trifluoromethoxy)phenyl)-1′H-spiro[piperidine-4,2′-quinazolin]-4′(3′H)-one], the EC50 is below 1000 nM.

As for `COc1ccc(N2C(=O)c3ccc(Br)cc3NC23CCN(Cc2ccc(F)c(F)c2)CC3)cc1` [Compound 17, 7′-Bromo-1-(3,4-difluorobenzyl)-3′-(4-methoxyphenyl)-1′H-spiro[piperidine-4,2′-quinazolin]-4′(3′H)-one], the EC50 was below 1000 nM.

With `O=C1c2ccc(Br)cc2NC2(CCN(Cc3cccnc3)CC2)N1c1ccc(OC(F)(F)F)cc1` [Compound 118, 7′-Bromo-1-(pyridin-3-ylmethyl)-3′-(4-(trifluoromethoxy)phenyl)-1′H-spiro[piperidine-4,2′-quinazolin]-4′(3′H)-one], the EC50 lay in the range of 1000 to 10000 nM.

Take `O=C1c2ccc(Br)cc2NC2(CCN(Cc3ccnc4ccccc34)CC2)N1c1ccc(OC(F)(F)F)cc1` [Compound 47, 7′-Bromo-1-(quinolin-4-ylmethyl)-3′-(4-(trifluoromethoxy)phenyl)-1′H-spiro[piperidine-4,2′-quinazolin]-4′(3′H)-on]: the EC50 was below 1000 nM.

For `O=C1c2ccc(F)cc2NC2(CCN(Cc3ccc(F)c(F)c3)CC2)N1c1ccc(OC(F)(F)F)cc1` [Compound 69, 1-(3,4-Difluorobenzyl)-7′-fluoro-3′-(4-(trifluoromethoxy)phenyl)-1′H-spiro[piperidine-4,2′-quinazolin]-4′(3′H)-one], the EC50 is 1000 to 10000 nM.

In the case of `COc1ccc(N2C(=O)c3ccccc3NC23CN(Cc2ccc(Cl)s2)C3)cc1` [Compound 98, 1-((5-Chlorothiophen-2-yl)methyl)-3′-(4-methoxyphenyl)-1′H-spiro[azetidine-3,2′-quinazolin]-4′(3′H)-one], the EC50 was 1000 to 10000 nM.

`COc1ccc(N2C(=O)c3ccc(-c4cncs4)cc3NC23CCN(Cc2ccc(F)c(F)c2)CC3)cc1` [Compound 45, 1-(3,4-Difluorobenzyl)-3′-(4-methoxyphenyl)-7′-(thiazol-5-yl)-1′H-spiro[piperidine-4,2′-quinazolin]-4′(3′H)-one]: the EC50 was below 1000 nM.

`O=C1c2ccc(Br)cc2NC2(CCN(Cc3ccccc3OC(F)(F)F)CC2)N1c1ccc(OC(F)(F)F)cc1` [Compound 46, 7′-Bromo-1-(2-(trifluoromethoxy)benzyl)-3′-(4-(trifluoromethoxy)phenyl)-1′H-spiro[piperidine-4,2′-quinazolin]-4′(3′H)-one]: the EC50 was below 1000 nM.

Regarding `COc1ccc(N2C(=O)c3ccccc3NC23CN(Cc2ccc(Cl)c(Cl)c2)C3)cc1` [Compound 56, 1-(3,4-Dichlorobenzyl)-3′-(4-methoxyphenyl)-1′H-spiro[azetidine-3,2′-quinazolin]-4′(3′H)-one], the EC50 was below 1000 nM.

Take `COc1ccc(N2C(=O)c3ccccc3NC23CN(Cc2ccc(F)cc2)C3)cc1` [Compound 101, 1-(4-Fluorobenzyl)-3′-(4-methoxyphenyl)-1′H-spiro[azetidine-3,2′-quinazolin]-4′(3′H)-one]: the EC50 lay in the range of 1000 to 10000 nM.

`CCC(c1ccccc1)N1CCC2(CC1)Nc1cc(Br)ccc1C(=O)N2c1ccc(OC(F)(F)F)cc1` (stereo not drawn) [Compound 48, 7′-Bromo-1-(1-phenylpropyl)-3′-(4-(trifluoromethoxy)phenyl)-1′H-spiro[piperidine-4,2′-quinazolin]-4′(3′H)-one]: the EC50 was below 1000 nM.

Turning to `COc1ccc(N2C(=O)c3ccccc3NC23CCN(Cc2ccc(Cl)c(Cl)c2)CC3)cc1` [Compound 54, 1-(3,4-Dichlorobenzyl)-3′-(4-methoxyphenyl)-1′H-spiro[piperidine-4,2′-quinazolin]-4′(3′H)-one], the EC50 was below 1000 nM.
